# Measurements reported in publication PMC12751014, “Non-Catalytic Inhibitors of the p38/MK2 Interface: Repurposing Approved Drugs to Target Neuroinflammation in Alzheimer’s Disease” (Journal of Medicinal Chemistry, 2025).
# “Also recorded” adds a separate entry of the source.
# Legend:
# [1] = biological target: recombinant His-tagged p38 (Homo sapiens, UniProt Q16539)
# [2] = tested on: p38α; details: systematic kinase profiling; reference number not given; read-out: IC50, inhibition of p38α catalysis; cited from earlier work
# [3] = biological target: T1, endogenous p38/MK2 complex (Homo sapiens, UniProt Q16539); test: Co-immunoprecipitation of endogenous p38/MK2 complex in HMC3 cells; type: cell-based; details: HMC3 cell lysate
# T1 construct: endogenous in cells; host or cells: HMC3 (ATCC CRL-3304)
# T1 sequence (Q16539 whole entry, one chain of several): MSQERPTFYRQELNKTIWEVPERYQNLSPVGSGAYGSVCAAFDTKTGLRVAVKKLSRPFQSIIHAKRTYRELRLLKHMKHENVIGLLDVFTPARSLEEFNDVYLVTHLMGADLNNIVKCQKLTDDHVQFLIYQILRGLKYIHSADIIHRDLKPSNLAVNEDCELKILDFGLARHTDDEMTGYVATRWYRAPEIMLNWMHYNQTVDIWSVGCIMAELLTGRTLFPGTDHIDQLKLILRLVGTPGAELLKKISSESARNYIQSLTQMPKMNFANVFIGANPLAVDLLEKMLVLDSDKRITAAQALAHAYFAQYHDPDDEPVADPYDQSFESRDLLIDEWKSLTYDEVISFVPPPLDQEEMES
# Description: HMC3 cells were lysed with 1% NP-40 lysis buffer, as described above. Clear cell lysate was incubated with equilibrated MK2-Trap Agarose beads (ChromoTek, catalog no. mta-20) or Binding Control Agarose Beads (Chromotek, catalog no. bab-20) and compounds or DMSO at 4 °C for 2 h. Immunoprecipitates were washed three times with 1% NP-40 lysis buffer. Samples were boiled in 1X SDS-PAGE sample buffer (BioRad, catalog no. 1610747) for 5 min before analysis by Western blotting.
# Proteins in each sample were separated by SDS-PAGE at 200 V for 40 min using 12.5% acrylamide gels. Transfer to nitrocellulose membranes was completed using the Trans-Blot Turbo Transfer System (BioRad) in TBT buffer (BioRad, catalog no. 10026938). Thirty min incubation in 5% nonfat dry milk (BioRad, catalog no. 170–6404) in TBST buffer (20 mM Tris-base, 150 mM NaCl, and 0.05% Tween 20) at room temperature was used to block membranes. p38α MAPK mouse mAb (Cell Signaling Technology, catalog no. 9217) was used to blot the membrane at 4 °C overnight. […] The wash step was repeated, and the blot was imaged with a ChemiDoc imaging system (BioRad). The SuperSignal West Pico PLUS Chemiluminescent Substrate (Thermo Scientific, catalog no. 34580) was used for developing membranes. Blotting of MK2 was then started with the removal of p38α antibodies using a striping buffer (Thermal Scientific, catalog no. 46430). […]
# [4] = biological target: p38α; details: systematic kinase profiling; reference number not given; read-out: K d for p38α; cited from earlier work
# [5] = tested on: human iPSC-derived microglia (iMGL); test: qRT-PCR of LPS/IFNγ-induced TNF-α expression in iPSC-derived microglia (iMGL); type: cell-based; details: 5 μM compound 1 h before LPS/IFN-γ 24 h
# [6] = biological target: T2, p38/MK2 interaction (Homo sapiens, UniProt Q16539); test: TR-FRET ultra-high-throughput screening (uHTS), 1536-well, HEK293T lysate VF-p38α / GST-MK2; type: binding; set-up: inhibition of p38/MK2 interaction, primary screen: concentration or dose not given beside the values
# T2 sequence (Q16539 whole entry): as the sequence (Q16539 whole entry, one chain of several) above
# [7] = tested on: HMC3 microglial cells; test: qRT-PCR of LPS-induced cytokine expression in HMC3 microglial cells; type: cell-based, human; details: HMC3, 5 μM compound 1 h before 100 ng/mL LPS 4 h
# Description: HMC3 cells were treated with 100 ng/mL E. coli LPS (Sigma-Aldrich, catalog no. L4005) for 4 h in DMEM media. […] Following pretreatment, iMGLs were challenged with 100 ng/mL LPS and 20 ng/mL interferon-γ (IFN-γ) for 24 h to induce an inflammatory response. At the end of the stimulation, cell lysates were collected for qPCR analysis of TNF-α […] gene expression. Total RNA isolation from cell samples was conducted using the RNeasy Plus kit (Qiagen, catalog no. 74134) according to manufacturer instructions and treated with DNase I (Invitrogen, catalog no. 18068-015). Extracted RNA was quantified using the Nanodrop One Spectrophotometer (Thermo Scientific) and then reverse-transcribed into cDNA in equal quantity (<1000 ng/reaction) with the SuperScript III System (Invitrogen, catalog no. 18080-051) following manufacturer directions. cDNA sample was treated with RNase H (Invitrogen, catalog no. 18021014) and diluted to 4 ng/μL equivalent of the starting total RNA. qPCR was performed in 96-well PCR plates (BioRad, catalog no. HSP9601) using the Realplex4Mastercycler (Eppendorf). Each reaction well combines 5 μL cDNA sample, 10 μL 2X SYBR Green Supermix (BioRad, catalog no. 1725271), 1 μL 5 μM primer mix for each target gene, and nuclease-free water up to 20 μL. […] The primer sequences used were: TNFα forward [NT], reverse [NT]-6 forward [NT], reverse [NT]-1β forward [NT], reverse [NT] Each gene was expression-normalized against the housekeeping gene GAPDH with the primer sequences: forward [NT], reverse [NT] Primers were obtained from Integrated DNA Technologies in lyophilized form. The cycler program was set to denaturation at 95 °C for 15 s, followed by annealing and extension at 60 °C for 60 s, repeated for 40 PCR cycles. Melting curve analyses were performed for each sample to ensure primer specificity. The experiment was performed in biological quadruplicates and technical quadruplicates.
# [8] = biological target: T2, p38/MK2 interaction; test: TR-FRET assay with purified recombinant His-p38 and GST-MK2; type: binding; details: side-by-side TR-FRET, 2h incubation
# Description: ENSG00000112062, UniProt ID: Q16539-1) was cloned into a pMCSG7 vector and transformed into Escherichia coli strain BL21(DE3). […] The resuspended cells were lysed through sonication. The lysate was centrifuged for 20 min at 70,000g at 4 °C and the clarified supernatant was passed through a gravity column containing 2 mL Ni-NTA resin pre-equilibrated with equilibration buffer. The resin was then washed with 25 column volumes of equilibration buffer supplemented with 40 mM imidazole, and the protein was eluted with equilibration buffer supplemented with 200 mM imidazole. […] The purity of the enzyme was verified by sodium dodecyl sulfate-polyacrylamide gel electrophoresis (SDS-PAGE) with Coomassie staining, aliquots flash frozen in liquid nitrogen, and stored at -80 °C.
# Chain of recombinant His-tagged p38 (Q16539 whole entry): as the sequence (Q16539 whole entry, one chain of several) above
smiles,measurement,setting,value
"Cc1cn(-c2cc(NC(=O)c3ccc(C)c(Nc4nccc(-c5cccnc5)n4)c3)cc(C(F)(F)F)c2)cn1 [Nilotinib, 4-methyl-N-[3-(4-methylimidazol-1-yl)-5-(trifluoromethyl)phenyl]-3-[(4-pyridin-3-ylpyrimidin-2-yl)amino]benzamide]",ΔT max (thermal stabilization),[1],8.22 °C
same,IC50,[2],~2.2 µM
same,endogenous p38/MK2 complex formation (co-IP),[3],disrupts the endogenous p38/MK2 complex
same,endogenous p38/MK2 complex formation (co-IP),[3]; listed as nilotinib,decreased p38/MK2 complex formation
same,Kd,[4],0.1 µM
same,LPS/IFNγ-induced TNF-α expression,[5],suppresses; also recorded: suppression
same,"inhibition of p38/MK2 interaction, primary screen","[6]; relative to DMSO control, 1536-well",≥ 50%
same,Pct of control,"[6]; uHTS TR-FRET signal, Emory Enriched Library",8.91 Pct of control
same,"LPS-induced TNF-α, IL-6, and IL-1β expression",[7],significantly (p-value <0.05) suppresses; also recorded: significantly reduced
same,maximal inhibition of p38/MK2 PPI,[8],~75%
